Experimental data from paper PMC8470973, “Multi-Target Actions of Acridones from Atalantia monophylla towards Alzheimer’s Pathogenesis and Their Pharmacokinetic Properties” (Pharmaceuticals, 2021).

How the values were obtained:
[1] = target: T1, AChE from Electrophorus electricus (type VI-S) (Electrophorus electricus, UniProt O42275); assay: biochemical; settings: Ellman's method, pH 7.4, acetylthiocholine 1 mM; mean ± SD; read-out: Anti-AChE IC50
T1 construct: purchased type VI-S
Description: It is well-known that the cholinergic system plays a vital role in the regulation of the learning, cognitive and memory processes. […] In the present study, all acridones were tested for their inhibition of AChE according to the method of Ellman and co-workers, using tacrine as a reference compound. […] Acridone consists of two benzene rings fused together with a keto group and a nitrogen atom at positions 9 and 10, respectively, resulting in a planar structure.
AChE activity was evaluated and modified from Ellman’s method. All test compounds were prepared as stock solution in ethanol. […] Experiments were performed in triplicates.

[2] = ABTS radical scavenging assay; settings: read-out: ABTS Scavenging Activity IC50; mean ± SD, triplicates; 10 to 100 µM tested
Description: In the present study, the antioxidant activity of the 10 acridones was evaluated by ABTS radical scavenging assay and trolox was used as the reference compound.
The antioxidant activity was determined by the decolonization of the radical cation of 2,2′-azinobis-(3-ethylbenzothiazoline-6-sulfonic acid) (ABTS^•+) [60]. […] Prior to the assay, the ABTS^•+ solution was diluted to get an absorbance of 0.70 ± 0.02 at 700 nm with ethanol. Trolox was used as an antioxidant standard. All test and standard compounds were dissolved in ethanol. Fifty microliters of each test compound was added to 100 µL of diluted ABTS^•+ solution to obtain final concentrations from 10 to 100 µM. […] Experiments were performed in independent triplicates.

Aβ1-42 = Aβ1-42 (Homo sapiens, UniProt P05067); assay: Inhibition of self-mediated Aβ1-42 aggregation (thioflavin T assay)
Description: The Aβ1-42 self-aggregation process was studied using the thioflavin-T assay [62, 63]. […] All test compounds were dissolved by DMSO.

[3] = system: SH-SY5Y neuroblastoma cells; assay: Cytotoxicity by MTT assay in SH-SY5Y cells; format: cell-based; settings: 0.1–10 µM, 24 h incubation
Description: […]. […] […]. Thus, the acridones were investigated for neuroprotective effects against H2O2 and Aβ1-42 induced toxicity in human SH-SY5Y neuroblastoma cells at the non-toxic concentration of 10 µM.
(§1) Human neuroblastoma cell line SH-SY5Y cells were cultured in Dulbecco’s modified Eagle medium (DMEM)/Ham’s F-12 medium supplemented with 10% fetal bovine serum (FBS), 100 U/mL penicillin and 100 µg/mL streptomycin. Cells were routinely cultured in 75 cm^2 cell culture flasks at 37 °C in 5% CO2. After that, cells were seeded at a density 5 × 10^5 cells/mL in 96-well plates and incubated for an additional 48 h before evaluation.
For the investigation of the toxicity effect of test compounds, cells were treated with test compounds at final concentrations of 0.1, 1, 10, 100 μM for 24 h. […] Then, culture media was replaced with a solution of MTT (0.5 mg/mL) at 37 °C for 2 h to determine survival of cells. Live cells containing formazan crystals were solubilized in 100 µL of DMSO. The absorption was measured by UV spectrometer ([…] Accureader M965) at 570 nm. The percentages of cell viability were calculated in relation to untreated cells.

SH-SY5Y cells [4] = assay: Neuroprotection against H2O2-induced cell death in SH-SY5Y cells; format: cell-based, Human; settings: 10 µM pre-treatment 24 h, then 250 µM H2O2 for 2 h
Description: (§2) To examine the neuroprotective effects of acridones against H2O2, SH-SY5Y cells were pre-treated with 10 µM citrusinine II and glycosparvarine for 24 h before exposure to 250 µM H2O2 for 2 h. […] The cytotoxic effects of H2O2 were attenuated by pre-treating cells with citrusinine II and glycosparvarine (Figure 8). For evaluation of the neuroprotective effects of acridones against Aβ1-42 toxicity, SH-SY5Y cells were pre-treated with 10 µM citrusinine II and glycosparvarine for 24 h, followed by 25 µM Aβ1-42 for 24 h. Cell viability was determined by MTT assay.
as §1
For evaluation of the neuroprotective effect against H2O2 induced cell damage, cells were pretreated with test compounds or a reference standard at the concentration of 10 μM for 24 h. After treatment, the medium was removed, and cells were washed with phosphate buffer saline to remove unabsorbed test compounds. […] The cell viability was determined by MTT assay.

SH-SY5Y cells [5] = assay: Neuroprotection against Aβ1-42-induced cell death in SH-SY5Y cells; format: cell-based, Human; settings: 10 µM pre-treatment 24 h, then 25 µM Aβ1-42 for 24 h
Description: as §2, §1
For neuroprotection against Aβ1–42 toxicity, the Aβ1–42 preparation was modified from Thiratmatrakul et al.. Briefly, lyophilized Aβ1–42 was reconstituted in sterile water and kept at –80 °C until use. […] Twenty-four hours later, cell viability was determined by the MTT colorimetric method. […]

Aβ1-42, sequence (P05067 672-713 limits assumed): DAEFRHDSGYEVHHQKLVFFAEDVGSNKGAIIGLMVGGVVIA
T1 sequence (O42275 24-633): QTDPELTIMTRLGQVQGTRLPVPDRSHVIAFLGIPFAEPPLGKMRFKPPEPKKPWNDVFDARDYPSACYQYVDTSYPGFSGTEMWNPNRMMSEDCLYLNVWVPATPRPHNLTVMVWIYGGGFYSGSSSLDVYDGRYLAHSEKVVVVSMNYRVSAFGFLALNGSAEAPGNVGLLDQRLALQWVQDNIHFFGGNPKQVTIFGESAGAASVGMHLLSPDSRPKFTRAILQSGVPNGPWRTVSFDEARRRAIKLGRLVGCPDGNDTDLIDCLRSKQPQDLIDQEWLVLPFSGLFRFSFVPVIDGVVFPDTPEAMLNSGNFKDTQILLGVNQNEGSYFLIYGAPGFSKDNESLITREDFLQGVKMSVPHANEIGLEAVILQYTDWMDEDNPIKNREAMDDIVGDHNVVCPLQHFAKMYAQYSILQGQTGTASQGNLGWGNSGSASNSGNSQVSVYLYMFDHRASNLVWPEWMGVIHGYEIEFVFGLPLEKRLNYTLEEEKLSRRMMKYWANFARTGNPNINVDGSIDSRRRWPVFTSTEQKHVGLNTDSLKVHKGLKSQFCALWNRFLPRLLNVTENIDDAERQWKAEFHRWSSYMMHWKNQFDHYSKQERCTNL

| SMILES | IC50 [1] [µM] | IC50 [2] [µM] | IC50 (Aβ1-42) [µM] | Effect on viability of SH-SY5Y cells (MTT) [3] | Neuroprotective effect against H2O2-induced loss of cell viability (MTT) (SH-SY5Y cells [4]) | Neuroprotective effect against Aβ1-42 toxicity (MTT) (SH-SY5Y cells [5]) |
| --- | --- | --- | --- | --- | --- | --- |
| CC(C)=CCc1c(O)c(CC=C(C)C)c2c(c1O)c(=O)c1cccc(O)c1n2C [N-methylatalaphylline] | 49.1 ± 2.75 | 50.7 ± 1.02 | 7.32 ± 0.09 |  |  |  |
| COc1c(O)cc2c(c1O)c(=O)c1cccc(O)c1n2C [Glycosparvarine, glycosparvarine] | 18.6 ± 2.77 | 22.9 ± 2.24 | 6.58 ± 2.03 | no effect on viability | attenuated |  |
| CC(C)=CCc1c2c(c3[nH]c4c(O)cccc4c(=O)c3c1O)C=CC(C)(C)O2 [Atalaphyllinine, atalaphyllinine] | 60.8 ± 4.62 | 53 ± 1.83 | 4.79 ± 0.67 |  |  |  |
| COc1c(O)cc(O)c2c(=O)c3cccc(O)c3n(C)c12 [Citrusinine II, citrusinine II] | 42.6 ± 4.81 | 20 ± 3.89 | 6.17 ± 2.29 | no effect on viability | attenuated | significantly protected |
| Cc1c(C)c2c(c(C)c1O)CCC(C)(C(=O)O)O2 (stereo not drawn) [Trolox, reference compound] |  | 58.9 ± 2.38 |  |  |  |  |
| COc1c(O)c(OC)c2c(c1O)c(=O)c1cccc(O)c1n2C [Citruscridone, citruscridone] | 47 ± 2.4 | 31.7 ± 0.56 | 8.61 ± 0.75 |  |  |  |
| CC(C)=CCc1c2c(c3c(c1O)c(=O)c1cccc(O)c1n3C)C=CC(C)(C)O2 [N-methylatalaphyllinine] | 54 ± 2.03 | 57.5 ± 3.52 | 6.14 ± 3.85 |  |  |  |
| COc1cc(O)c2c(=O)c3cccc(O)c3n(C)c2c1OC [Citrusinine I, citrusinine I] | 35.4 ± 1.61 | 33.77 ± 0.29 | 7.05 ± 1.45 |  |  |  |
| CC(C)=CCc1c(O)c(CC=C(C)C)c2[nH]c3c(O)cccc3c(=O)c2c1O [Atalaphylline, atalaphylline] | 58.3 ± 2.99 | 46.2 ± 2.31 | 6.58 ± 1.3 |  |  |  |
| CC(C)=CCc1c2c(c(O)c3c(=O)c4cccc(O)c4n(C)c13)C=CC(C)(C)O2 [N-methylcycloatalaphylline A] | 66.6 ± 2.51 | 79.6 ± 3.26 | 5.84 ± 0.99 |  |  |  |
| COc1cc2[nH]c3c(O)cccc3c(=O)c2c(O)c1CC=C(C)C [Buxifoliadine C, buxifoliadine C] | 50.8 ± 3.74 | 21.8 ± 2.71 | 8.81 ± 3.62 |  |  |  |
